{"source": "PubChem BioAssay AID248", "about": "(DTP/NCI, 2004)", "test_system": "L1210 leukemia ip in BDF1 mice, survival T/C", "experiment": "NCI In Vivo Anticancer Drug Screen. Data for tumor model L1210 Leukemia (intraperitoneal) in B6D2F1 (BDF1) mice", "settings": "endpoint: mean survival time, higher = longer survival", "how_it_was_run": "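Value reflects the ratio of survival in compound-treated mice to survival in vehicle-treated controls, with both groups carrying the same transplanted tumor.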", "key": {"[1]": {"settings": "dose: 100.0 mg/kg/injection, schedule: Q01DX001 (ip), vehicle: saline"}, "[2]": {"settings": "dose: 100.0 mg/kg/injection, schedule: Q04DX003 (ip), vehicle: Klucel (hydroxypropylcellulose) (HPC)"}}, "note": "“And” between values parts separate entries of the source, which are not always exact repeats. Equal values may be shown once. Inconclusive results and toxic doses are left out."}
{"smiles": "O=C(NC(c1ccccc1)c1ccccc1)c1ccccc1", "values": [{"measurement": "T/C", "setting": "dose: 25.0 mg/kg/injection, schedule: Q01DX009 (ip), vehicle: saline with Tween-80", "value": "88 % of control"}, {"measurement": "T/C", "setting": "dose: 25.0 mg/kg/injection, schedule: Q04DX003 (ip), vehicle: saline with Tween-80", "value": "97 % of control"}, {"measurement": "T/C", "setting": "dose: 50.0 mg/kg/injection, schedule: Q01DX001 (ip), vehicle: saline", "value": "97 % of control"}, {"measurement": "T/C", "setting": "dose: 50.0 mg/kg/injection, schedule: Q01DX009 (ip), vehicle: saline with Tween-80", "value": "88 % of control"}, {"measurement": "T/C", "setting": "dose: 50.0 mg/kg/injection, schedule: Q04DX003 (ip), vehicle: saline with Tween-80", "value": "94 % of control"}, {"measurement": "T/C", "setting": "[1]", "value": "91 % of control"}, {"measurement": "T/C", "setting": "dose: 100.0 mg/kg/injection, schedule: Q01DX009 (ip), vehicle: saline with Tween-80", "value": "88 % of control"}, {"measurement": "T/C", "setting": "dose: 100.0 mg/kg/injection, schedule: Q04DX003 (ip), vehicle: saline with Tween-80", "value": "89 % of control"}]}
{"smiles": "CCNc1c([N+](=O)[O-])cc(S(=O)(=O)O)cc1[N+](=O)[O-]", "values": [{"measurement": "T/C", "setting": "dose: 100.0 mg/kg/injection, schedule: Q04DX003 (ip), vehicle: saline", "value": "116 % of control"}, {"measurement": "T/C", "setting": "dose: 200.0 mg/kg/injection, schedule: Q04DX003 (ip), vehicle: saline", "value": "105 % of control"}, {"measurement": "T/C", "setting": "dose: 400.0 mg/kg/injection, schedule: Q04DX003 (ip), vehicle: saline", "value": "95 % of control"}]}
{"smiles": "O=C1OC(=O)C(Cl)=C1Cl", "values": [{"measurement": "T/C", "setting": "dose: 25.0 mg/kg/injection, schedule: Q04DX002 (ip), vehicle: saline with Tween-80", "value": "97 % of control"}, {"measurement": "T/C", "setting": "dose: 50.0 mg/kg/injection, schedule: Q04DX002 (ip), vehicle: saline with Tween-80", "value": "93 % of control"}, {"measurement": "T/C", "setting": "dose: 100.0 mg/kg/injection, schedule: Q04DX002 (ip), vehicle: saline with Tween-80", "value": "104 % of control and 112 % of control"}]}
{"smiles": "O=S(=O)(c1ccc(Cl)cc1)C1CCCC1Cl", "note": "(centres undefined)", "values": [{"measurement": "T/C", "setting": "[1]", "value": "110 % of control"}, {"measurement": "T/C", "setting": "dose: 200.0 mg/kg/injection, schedule: Q01DX001 (ip), vehicle: saline", "value": "109 % of control"}, {"measurement": "T/C", "setting": "dose: 400.0 mg/kg/injection, schedule: Q01DX001 (ip), vehicle: saline", "value": "100 % of control"}]}
{"smiles": "C#CC(=O)OCC#CCOC(=O)C#C", "values": [{"measurement": "T/C", "setting": "dose: 1.56 mg/kg/injection, schedule: Q01DX009 (ip), vehicle: saline with Tween-80", "value": "111 % of control"}, {"measurement": "T/C", "setting": "dose: 3.12 mg/kg/injection, schedule: Q01DX009 (ip), vehicle: saline with Tween-80", "value": "101 % of control"}, {"measurement": "T/C", "setting": "dose: 6.25 mg/kg/injection, schedule: Q01DX009 (ip), vehicle: saline with Tween-80", "value": "87 % of control and 90 % of control"}]}
{"smiles": "[CH3][Sn]([CH3])=[O]", "values": [{"measurement": "T/C", "setting": "dose: 5.0 mg/kg/injection, schedule: Q01DX001 (ip), vehicle: other", "value": "95 % of control"}, {"measurement": "T/C", "setting": "dose: 5.0 mg/kg/injection, schedule: Q01DX001 (ip), vehicle: saline", "value": "107 % of control"}, {"measurement": "T/C", "setting": "dose: 10.0 mg/kg/injection, schedule: Q01DX001 (ip), vehicle: other", "value": "98 % of control"}, {"measurement": "T/C", "setting": "dose: 10.0 mg/kg/injection, schedule: Q01DX001 (ip), vehicle: saline", "value": "98 % of control"}, {"measurement": "T/C", "setting": "dose: 20.0 mg/kg/injection, schedule: Q01DX001 (ip), vehicle: other", "value": "93 % of control"}, {"measurement": "T/C", "setting": "dose: 20.0 mg/kg/injection, schedule: Q01DX001 (ip), vehicle: saline", "value": "108 % of control"}, {"measurement": "T/C", "setting": "dose: 40.0 mg/kg/injection, schedule: Q01DX001 (ip), vehicle: other", "value": "103 % of control"}, {"measurement": "T/C", "setting": "dose: 40.0 mg/kg/injection, schedule: Q01DX001 (ip), vehicle: saline", "value": "95 % of control"}]}
{"smiles": "COc1ccc(NC(=O)/C=C/c2ccc([N+](=O)[O-])cc2)cc1S(=O)(=O)F", "values": [{"measurement": "T/C", "setting": "[2]", "value": "98 % of control"}, {"measurement": "T/C", "setting": "dose: 200.0 mg/kg/injection, schedule: Q04DX003 (ip), vehicle: Klucel (hydroxypropylcellulose) (HPC)", "value": "107 % of control"}, {"measurement": "T/C", "setting": "dose: 400.0 mg/kg/injection, schedule: Q04DX003 (ip), vehicle: Klucel (hydroxypropylcellulose) (HPC)", "value": "98 % of control"}]}
{"smiles": "CC1=NCCc2cc3[nH]c4ccccc4c3cc21", "values": [{"measurement": "T/C", "setting": "dose: 25.0 mg/kg/injection, schedule: Q01DX009 (ip), vehicle: Klucel (hydroxypropylcellulose) (HPC)", "value": "102 % of control"}, {"measurement": "T/C", "setting": "dose: 25.0 mg/kg/injection, schedule: Q04DX003 (ip), vehicle: Klucel (hydroxypropylcellulose) (HPC)", "value": "99 % of control"}, {"measurement": "T/C", "setting": "dose: 50.0 mg/kg/injection, schedule: Q01DX009 (ip), vehicle: Klucel (hydroxypropylcellulose) (HPC)", "value": "96 % of control"}, {"measurement": "T/C", "setting": "dose: 50.0 mg/kg/injection, schedule: Q04DX003 (ip), vehicle: Klucel (hydroxypropylcellulose) (HPC)", "value": "104 % of control"}, {"measurement": "T/C", "setting": "dose: 100.0 mg/kg/injection, schedule: Q01DX001 (ip), vehicle: Klucel (hydroxypropylcellulose) (HPC)", "value": "94 % of control"}, {"measurement": "T/C", "setting": "dose: 100.0 mg/kg/injection, schedule: Q01DX009 (ip), vehicle: Klucel (hydroxypropylcellulose) (HPC)", "value": "94 % of control"}, {"measurement": "T/C", "setting": "[2]", "value": "100 % of control"}]}
{"smiles": "COCCOC", "values": [{"measurement": "T/C", "setting": "dose: 86.0 mg/kg/injection, schedule: Q01DX Z (ip), vehicle: saline", "value": "103 % of control"}, {"measurement": "T/C", "setting": "dose: 100.0 mg/kg/injection, schedule: Q04DX003 (ip), vehicle: acetone", "value": "107 % of control"}, {"measurement": "T/C", "setting": "dose: 125.0 mg/kg/injection, schedule: Q01DX Z (ip), vehicle: saline", "value": "106 % of control"}, {"measurement": "T/C", "setting": "dose: 130.0 mg/kg/injection, schedule: Q01DX Z (ip), vehicle: saline", "value": "106 % of control"}, {"measurement": "T/C", "setting": "dose: 200.0 mg/kg/injection, schedule: Q04DX003 (ip), vehicle: acetone", "value": "102 % of control"}, {"measurement": "T/C", "setting": "dose: 250.0 mg/kg/injection, schedule: Q01DX Z (ip), vehicle: saline", "value": "113 % of control"}, {"measurement": "T/C", "setting": "dose: 400.0 mg/kg/injection, schedule: Q04DX003 (ip), vehicle: acetone", "value": "102 % of control"}, {"measurement": "T/C", "setting": "dose: 450.0 mg/kg/injection, schedule: Q01DX Z (ip), vehicle: saline", "value": "154 % of control"}, {"measurement": "T/C", "setting": "dose: 500.0 mg/kg/injection, schedule: Q01DX Z (ip), vehicle: saline", "value": "116 % of control"}, {"measurement": "T/C", "setting": "dose: 675.0 mg/kg/injection, schedule: Q01DX Z (ip), vehicle: saline", "value": "150 % of control and 160 % of control"}, {"measurement": "T/C", "setting": "dose: 1500.0 mg/kg/injection, schedule: Q01DX Z (ip), vehicle: saline", "value": "96 % of control"}]}
